# Experimental data from PubChem BioAssay (NCI).
#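 Briefly, cells in 96-well plates were exposed to five compound concentrations for 48 h, and endpoints were estimated by linear interpolation. TGI marks complete inhibition of growth.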
# Test system: NCI-H23 lung
# Assay: NCI tumour cell line growth inhibition, 48 h
row,Structure (SMILES),TGI [µM]
1,CCOC(=O)CCC(=O)C1c2cccc(O)c2C(=O)c2c(O)cc(C)cc21 (stereo unspecified),2.34
2,CC(=O)Nc1ccc(/C=C/c2ccc(NC(=O)Nc3ccc(/C=C/c4ccc(NC(C)=O)cc4S(=O)(=O)O)c(S(=O)(=O)O)c3)cc2S(=O)(=O)O)c(S(=O)(=O)O)c1,> 100
3,O=C(c1cccc2ccccc12)N1CCC(C2CCN(C(=O)c3cccc4ccccc34)CC2)CC1,> 100

# Test system: NCI-H460 lung
# Assay: NCI tumour cell line growth inhibition, 48 h
row,Structure (SMILES),TGI [µM]
1,CCOC(=O)CNC(=O)N(CC)C12CC3CC(CC(C3)C1)C2,406
2,CCOC(=O)CCC(=O)C1c2cccc(O)c2C(=O)c2c(O)cc(C)cc21 (stereo unspecified),1.27
3,CC(=O)Nc1ccc(/C=C/c2ccc(NC(=O)Nc3ccc(/C=C/c4ccc(NC(C)=O)cc4S(=O)(=O)O)c(S(=O)(=O)O)c3)cc2S(=O)(=O)O)c(S(=O)(=O)O)c1,> 100
4,O=C(c1cccc2ccccc12)N1CCC(C2CCN(C(=O)c3cccc4ccccc34)CC2)CC1,> 100

# Test system: NCI-H522 lung
# Assay: NCI tumour cell line growth inhibition, 48 h
row,Structure (SMILES),TGI [µM]
1,CCOC(=O)CNC(=O)N(CC)C12CC3CC(CC(C3)C1)C2,323
2,CCOC(=O)CCC(=O)C1c2cccc(O)c2C(=O)c2c(O)cc(C)cc21 (stereo unspecified),1.33
3,CC(=O)Nc1ccc(/C=C/c2ccc(NC(=O)Nc3ccc(/C=C/c4ccc(NC(C)=O)cc4S(=O)(=O)O)c(S(=O)(=O)O)c3)cc2S(=O)(=O)O)c(S(=O)(=O)O)c1,> 100
4,O=C(c1cccc2ccccc12)N1CCC(C2CCN(C(=O)c3cccc4ccccc34)CC2)CC1,> 100

# Test system: NCI/ADR-RES ovarian
# Assay: NCI tumour cell line growth inhibition, 48 h
row,Structure (SMILES),TGI [µM]
1,CCOC(=O)CNC(=O)N(CC)C12CC3CC(CC(C3)C1)C2,402
2,CC(=O)Nc1ccc(/C=C/c2ccc(NC(=O)Nc3ccc(/C=C/c4ccc(NC(C)=O)cc4S(=O)(=O)O)c(S(=O)(=O)O)c3)cc2S(=O)(=O)O)c(S(=O)(=O)O)c1,> 100

# Test system: OVCAR-3 ovarian
# Assay: NCI tumour cell line growth inhibition, 48 h
row,Structure (SMILES),TGI [µM]
1,CCOC(=O)CNC(=O)N(CC)C12CC3CC(CC(C3)C1)C2,287
2,CCOC(=O)CCC(=O)C1c2cccc(O)c2C(=O)c2c(O)cc(C)cc21 (stereo unspecified),1.18
3,CC(=O)Nc1ccc(/C=C/c2ccc(NC(=O)Nc3ccc(/C=C/c4ccc(NC(C)=O)cc4S(=O)(=O)O)c(S(=O)(=O)O)c3)cc2S(=O)(=O)O)c(S(=O)(=O)O)c1,> 100
4,O=C(c1cccc2ccccc12)N1CCC(C2CCN(C(=O)c3cccc4ccccc34)CC2)CC1,> 100

# Test system: OVCAR-4 ovarian
# Assay: NCI tumour cell line growth inhibition, 48 h
row,Structure (SMILES),TGI [µM]
1,CCOC(=O)CNC(=O)N(CC)C12CC3CC(CC(C3)C1)C2,536
2,CCOC(=O)CCC(=O)C1c2cccc(O)c2C(=O)c2c(O)cc(C)cc21 (stereo unspecified),1.76
3,CC(=O)Nc1ccc(/C=C/c2ccc(NC(=O)Nc3ccc(/C=C/c4ccc(NC(C)=O)cc4S(=O)(=O)O)c(S(=O)(=O)O)c3)cc2S(=O)(=O)O)c(S(=O)(=O)O)c1,> 100

# Test system: OVCAR-5 ovarian
# Assay: NCI tumour cell line growth inhibition, 48 h
row,Structure (SMILES),TGI [µM]
1,CCOC(=O)CNC(=O)N(CC)C12CC3CC(CC(C3)C1)C2,369
2,CCOC(=O)CCC(=O)C1c2cccc(O)c2C(=O)c2c(O)cc(C)cc21 (stereo unspecified),1.67
3,CC(=O)Nc1ccc(/C=C/c2ccc(NC(=O)Nc3ccc(/C=C/c4ccc(NC(C)=O)cc4S(=O)(=O)O)c(S(=O)(=O)O)c3)cc2S(=O)(=O)O)c(S(=O)(=O)O)c1,> 100
4,O=C(c1cccc2ccccc12)N1CCC(C2CCN(C(=O)c3cccc4ccccc34)CC2)CC1,> 100

# Test system: OVCAR-8 ovarian
# Assay: NCI tumour cell line growth inhibition, 48 h
row,Structure (SMILES),TGI [µM]
1,CCOC(=O)CNC(=O)N(CC)C12CC3CC(CC(C3)C1)C2,417
2,CCOC(=O)CCC(=O)C1c2cccc(O)c2C(=O)c2c(O)cc(C)cc21 (stereo unspecified),2.01
3,CC(=O)Nc1ccc(/C=C/c2ccc(NC(=O)Nc3ccc(/C=C/c4ccc(NC(C)=O)cc4S(=O)(=O)O)c(S(=O)(=O)O)c3)cc2S(=O)(=O)O)c(S(=O)(=O)O)c1,> 100
4,O=C(c1cccc2ccccc12)N1CCC(C2CCN(C(=O)c3cccc4ccccc34)CC2)CC1,> 100

# Test system: P388 leukemia
# Assay: NCI tumour cell line growth inhibition, 48 h
row,Structure (SMILES),TGI [µM]
1,CCOC(=O)CNC(=O)N(CC)C12CC3CC(CC(C3)C1)C2,260
2,CC(=O)Nc1ccc(/C=C/c2ccc(NC(=O)Nc3ccc(/C=C/c4ccc(NC(C)=O)cc4S(=O)(=O)O)c(S(=O)(=O)O)c3)cc2S(=O)(=O)O)c(S(=O)(=O)O)c1,> 100

# Test system: P388/ADR leukemia
# Assay: NCI tumour cell line growth inhibition, 48 h
row,Structure (SMILES),TGI [µM]
1,CCOC(=O)CNC(=O)N(CC)C12CC3CC(CC(C3)C1)C2,421

# Test system: RPMI-8226 leukemia
# Assay: NCI tumour cell line growth inhibition, 48 h
row,Structure (SMILES),TGI [µM]
1,CCOC(=O)CNC(=O)N(CC)C12CC3CC(CC(C3)C1)C2,316
2,CCOC(=O)CCC(=O)C1c2cccc(O)c2C(=O)c2c(O)cc(C)cc21 (stereo unspecified),5.77
3,CC(=O)Nc1ccc(/C=C/c2ccc(NC(=O)Nc3ccc(/C=C/c4ccc(NC(C)=O)cc4S(=O)(=O)O)c(S(=O)(=O)O)c3)cc2S(=O)(=O)O)c(S(=O)(=O)O)c1,> 100
4,O=C(c1cccc2ccccc12)N1CCC(C2CCN(C(=O)c3cccc4ccccc34)CC2)CC1,> 100

# Test system: RXF 393 renal
# Assay: NCI tumour cell line growth inhibition, 48 h
row,Structure (SMILES),TGI [µM]
1,CCOC(=O)CNC(=O)N(CC)C12CC3CC(CC(C3)C1)C2,388
2,CCOC(=O)CCC(=O)C1c2cccc(O)c2C(=O)c2c(O)cc(C)cc21 (stereo unspecified),1.25
3,CC(=O)Nc1ccc(/C=C/c2ccc(NC(=O)Nc3ccc(/C=C/c4ccc(NC(C)=O)cc4S(=O)(=O)O)c(S(=O)(=O)O)c3)cc2S(=O)(=O)O)c(S(=O)(=O)O)c1,> 100
4,O=C(c1cccc2ccccc12)N1CCC(C2CCN(C(=O)c3cccc4ccccc34)CC2)CC1,> 100

# Test system: RXF-631 renal
# Assay: NCI tumour cell line growth inhibition, 48 h
row,Structure (SMILES),TGI [nM]
1,CCOC(=O)CCC(=O)C1c2cccc(O)c2C(=O)c2c(O)cc(C)cc21 (stereo unspecified),1650
2,O=C(c1cccc2ccccc12)N1CCC(C2CCN(C(=O)c3cccc4ccccc34)CC2)CC1,> 100000

# Test system: SF-268 CNS
# Assay: NCI tumour cell line growth inhibition, 48 h
row,Structure (SMILES),TGI [µM]
1,CCOC(=O)CNC(=O)N(CC)C12CC3CC(CC(C3)C1)C2,317
2,CC(=O)Nc1ccc(/C=C/c2ccc(NC(=O)Nc3ccc(/C=C/c4ccc(NC(C)=O)cc4S(=O)(=O)O)c(S(=O)(=O)O)c3)cc2S(=O)(=O)O)c(S(=O)(=O)O)c1,> 100
3,O=C(c1cccc2ccccc12)N1CCC(C2CCN(C(=O)c3cccc4ccccc34)CC2)CC1,> 100

# Test system: SF-295 CNS
# Assay: NCI tumour cell line growth inhibition, 48 h
row,Structure (SMILES),TGI [µM]
1,CCOC(=O)CNC(=O)N(CC)C12CC3CC(CC(C3)C1)C2,304
2,CCOC(=O)CCC(=O)C1c2cccc(O)c2C(=O)c2c(O)cc(C)cc21 (stereo unspecified),0.878
3,CC(=O)Nc1ccc(/C=C/c2ccc(NC(=O)Nc3ccc(/C=C/c4ccc(NC(C)=O)cc4S(=O)(=O)O)c(S(=O)(=O)O)c3)cc2S(=O)(=O)O)c(S(=O)(=O)O)c1,> 100
4,O=C(c1cccc2ccccc12)N1CCC(C2CCN(C(=O)c3cccc4ccccc34)CC2)CC1,> 100

# Test system: SF-539 CNS
# Assay: NCI tumour cell line growth inhibition, 48 h
row,Structure (SMILES),TGI [µM]
1,CCOC(=O)CNC(=O)N(CC)C12CC3CC(CC(C3)C1)C2,251
2,CCOC(=O)CCC(=O)C1c2cccc(O)c2C(=O)c2c(O)cc(C)cc21 (stereo unspecified),0.535
3,CC(=O)Nc1ccc(/C=C/c2ccc(NC(=O)Nc3ccc(/C=C/c4ccc(NC(C)=O)cc4S(=O)(=O)O)c(S(=O)(=O)O)c3)cc2S(=O)(=O)O)c(S(=O)(=O)O)c1,> 100
4,O=C(c1cccc2ccccc12)N1CCC(C2CCN(C(=O)c3cccc4ccccc34)CC2)CC1,> 100

# Test system: SK-MEL-2 melanoma
# Assay: NCI tumour cell line growth inhibition, 48 h
row,Structure (SMILES),TGI [µM]
1,CCOC(=O)CNC(=O)N(CC)C12CC3CC(CC(C3)C1)C2,205
2,CCOC(=O)CCC(=O)C1c2cccc(O)c2C(=O)c2c(O)cc(C)cc21 (stereo unspecified),1.08
3,CC(=O)Nc1ccc(/C=C/c2ccc(NC(=O)Nc3ccc(/C=C/c4ccc(NC(C)=O)cc4S(=O)(=O)O)c(S(=O)(=O)O)c3)cc2S(=O)(=O)O)c(S(=O)(=O)O)c1,> 100
4,O=C(c1cccc2ccccc12)N1CCC(C2CCN(C(=O)c3cccc4ccccc34)CC2)CC1,> 100
